Data as given in US20220324770A1, “NITRIFICATION INHIBITORS” (The University of Melbourne, priority 2019, published 2022).

Legend:
[1] = test system: South Johnstone soil; assay: Soil thin-layer chromatography (TLC) leaching study, South Johnstone soil; assay type: physicochemical; conditions: for Detected Inhibitor (%): South Johnstone soil TLC
Procedure: (§1) TLC plates were prepared based on methods described in the literature (Helling, C. S., Turner, B. C, Science 1968, 162, 562-563; Mohammad, A., Jabeen, N., JPC—Journal of Planar Chromatography—Modern TLC 2003, 16, 137-143). Masking tape (3 layers, ˜[…] total thickness) was used to outline three columns (4 cm W×12 cm H) on a glass TLC plate (20×20 cm). A slurry of freshly ground soil in distilled H2O (˜2:3 m/v) was then poured onto the prepared plate and spread evenly using a glass rod. Once even, the plate was dried overnight in an oven at 35° C. Careful removal of the masking tape afforded the TLC plate ready for sample application.
(§2) Samples of DMP (the active core of DMPP) or Compound 16 (˜1 mg) dissolved in acetone (100 μL) were pipetted in a straight line across the soil, 2 cm above the base of the plate. Application band thickness was kept under 0.5 cm. After 30 mins of drying time, the TLC plate was developed inside a glass developing chamber with distilled H2O (depth of 0.5 cm) until the solvent front reached the top of the soil (˜1 hr). […] The plate was then allowed to air dry overnight.
(§3) Once dry, the plate was divided into six horizontal bands corresponding to Rf values of: (1) <0.05 (baseline), (2) 0.05 to 0.25, (3) 0.25 to 0.45, (4) 0.45 to 0.65, (5) 0.65 to 0.85, and (6) 0.85 to 1. In sequence, soil in each band was carefully scraped off the glass backing and collected in vials. Special care was taken to avoid cross-contamination between soil of different bands, and the separate channels.
(§4) Individual soil bands collected from the TLC plate were extracted as follows: • 1. Addition of an aqueous solution of CaCl2/MgSO4 (0.01M and 0.45M respectively, 2 mL). • 2. Sonication for 5 minutes then manual shaking for 30 seconds. • 3. Addition of methyl-tert-butyl ether (MTBE, 2 mL) then manual shaking for 30 seconds. • 4. Sonication for 10 minutes then manual shaking for 30 seconds. • 5. Rested until soil began to settle, then frozen overnight at −20° C. • 6. After partial defrosting, the ethereal extract was filtered through nylon syringe filters (FilterBio®, 13 mm diameter, 0.45 µm pore size).
(§5) The filtered ethereal extracts (450 μL) were spiked with 50 μL of a standard solution of either cyclododecanone in MTBE (1.97 mg/mL, for DMP-treated samples) or cyclooctanone in MTBE (6.37 mg/mL, for 16-treated samples). Samples were then directly analysed by GC-MS (method: 70° C. for 5 mins, then ramp 10° C./min to 250° C., hold at 250° C. for 17 mins [total run time=40 minutes]) to analyse the presence or absence of the inhibitor in each soil band.
(§6) GC-MS peak areas calculated for the standards cyclooctanone (Rt=9.1 mins) and cyclododecanone (Rt=15.8 mins) were compared to those calculated for Compound 16 (Rt=13.9 mins) and DMP (Rt=7.6 mins) respectively, for each soil sample extract where inhibitor was detected as follows:
(§7) As each treatment was run in triplicate, mean values are reported for detected inhibitor percentages for each Rf band, with errors presented as the standard deviation.
(§8) Samples of the DCD (˜1 mg) dissolved in methanol (300 μL) were pipetted in a straight line across the soil, 2 cm above the base of the plate. Application band thickness was kept under 0.5 cm. After 30 mins of drying time, the TLC plate was developed inside a glass developing chamber in distilled H2O (depth of 0.5 cm) until the solvent front reached the top of the soil (˜1 hr). […] The plate was then allowed to air dry overnight.
(§9) Individual soil bands collected from the TLC plate were extracted as follows: • 1. Addition of methanol (2 mL). • 2. Manual shaking for 30 seconds following sonication for 15 minutes. • 3. Once soil began to settle, the methanolic extract was filtered through nylon syringe filters (FilterBio®, 13 mm diameter, 0.45 µm pore size). • 4. 300 μL of the methanolic extracts were evaporated under nitrogen flow, and then the residues was taken up in ultrapure acetonitrile (1 mL). • 5. […]

[2] = test system: Dahlen soil; assay: Soil thin-layer chromatography (TLC) leaching study, Dahlen soil; assay type: physicochemical
Procedure: as §1, §2, §3, §4, §5, §6, §7, §8, §9

[3] = temperature of 35° C.; cited from earlier work
[4] = ranging from no effect; cited from earlier work

SMILES | Detected Inhibitor (%) ([1]; Rf 0.05-0.25) | Detected Inhibitor (%) ([1]; Rf 0.25-0.45) | Detected Inhibitor (%) ([1]; Rf 0.45-0.65) | Detected Inhibitor (%) ([1]; Rf 0.65-0.85) | Detected Inhibitor (%) ([1]; Rf 0.85-1) | leaching tendency (conclusion) ([1]; acidic soils) | Rf range in which the majority of the inhibitor was detected ([2]; Dahlen soil TLC) | Detected Inhibitor (%) ([2]; Dahlen soil TLC, Rf 0.05-0.25) | Detected Inhibitor (%) ([2]; Dahlen soil TLC, Rf 0.25-0.45) | Detected Inhibitor (%) ([2]; Dahlen soil TLC, Rf 0.45-0.65) | Detected Inhibitor (%) ([2]; Dahlen soil TLC, Rf 0.65-0.85) | mobility in soil TLC ([2]; neutral Dahlen soil) | leachability (conclusion) ([2]; neutral soils) | time DMPP remains effective [3] | inhibition in field studies for reducing leaching and N2O emissions [4] [%]
CCCc1cn(CCC)nn1 [Compound 16, 1,4-dipropyl-1H-1,2,3-triazole] | 1 ± 1 | 5 ± 6 | 34 ± 5 | 49 ± 9 | 11 ± 3 | lower-to-similar leaching tendencies to DCD | 0.25-0.45 | 3 ± 4 | 58 ± 14 | 38 ± 16 | 1 ± 1 | reduced mobility compared to DMP | lower leachability than DMP and DCD | – | –
Cc1c[nH]nc1C.O=P(O)(O)O [DMPP, 3,4-dimethylpyrazole phosphate, reference compound] | – | – | – | – | – | – | – | – | – | – | – | – | – | only one week | ≤ 70
